Measured values published in PubChem BioAssay (NCI).
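Exposure lasted 48 hours, with cells grown in 96-well plates and compounds tested at five concentrations. The concentration for 50% growth inhibition is given as GI50. TGI: total growth inhibition.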

Legend:
Experiment in all cases: NCI-60 cell line screen, 48 h
COLO 205 colon = test system: COLO 205 colon
OVCAR-8 ovarian = test system: OVCAR-8 ovarian
SK-OV-3 ovarian = test system: SK-OV-3 ovarian
OVCAR-5 ovarian = test system: OVCAR-5 ovarian
SN12C renal = test system: SN12C renal
A549 NSCLC = test system: A549 NSCLC
DU-145 prostate = test system: DU-145 prostate
HL-60(TB) leukemia = test system: HL-60(TB) leukemia
A498 renal = test system: A498 renal
SW-620 colon = test system: SW-620 colon

Row | SMILES | TGI (COLO 205 colon) | TGI (OVCAR-8 ovarian) | TGI (SK-OV-3 ovarian) | TGI (OVCAR-5 ovarian) | TGI (SN12C renal) | TGI (A549 NSCLC) | TGI (DU-145 prostate) | TGI (HL-60(TB) leukemia) | TGI (A498 renal) | TGI (SW-620 colon) | GI50 (COLO 205 colon) | GI50 (OVCAR-8 ovarian) | GI50 (SK-OV-3 ovarian) | GI50 (OVCAR-5 ovarian) | GI50 (SN12C renal) | GI50 (A549 NSCLC) | GI50 (DU-145 prostate) | GI50 (HL-60(TB) leukemia) | GI50 (A498 renal) | GI50 (SW-620 colon)
1 | C[C@]12CC[C@H](O)CC1=CC[C@@H]1C2CC[C@]2(C)c3nn(-c4ccc(F)cc4)nc3CC12 (some centres undefined) | > 100 µM | > 100 µM | > 100 µM | > 100 µM | > 100 µM | > 100 µM | > 100 µM | > 100 µM | > 100 µM | > 100 µM | – | – | – | – | – | – | – | – | – | –
2 | COc1c(C)c2c(c(O)c1C/C=C(\C)CCC(=O)OCCN1CCOCC1)C(=O)OC2 | > 100 µM | > 100 µM | > 100 µM | > 100 µM | > 100 µM | > 100 µM | > 100 µM | > 100 µM | > 100 µM | > 100 µM | 0.692 µM | 0.464 µM | 0.462 µM | 2.09 µM | 0.448 µM | 0.289 µM | 0.415 µM | 1.12 µM | 0.52 µM | 0.142 µM
3 | COc1cc(Cl)cc(-c2nn(C(=O)NCCN3CCN(C)CC3)cc2-c2ccncc2)c1 | 60.9 µM | > 100 µM | 28.8 µM | 68.2 µM | > 100 µM | > 100 µM | 66.5 µM | 75.8 µM | 24.7 µM | > 100 µM | 9.86 µM | 2.94 µM | 5.44 µM | 17.9 µM | 10.6 µM | 9.55 µM | 12.3 µM | 25.6 µM | 4.67 µM | 33.1 µM
4 | N=C1c2nc3n(c2C(=O)c2nc4n(c21)CCCC4)CCCC3 | 3.39 µM | > 100 µM | > 100 µM | 4.89 µM | 3.12 µM | 4.33 µM | 2.9 µM | > 84.3 µM | 8.16 µM | 24.4 µM | 1.83 µM | 32.8 µM | 34.2 µM | 2.28 µM | 1.58 µM | 1.98 µM | 1.5 µM | 31 µM | 0.727 µM | 3.8 µM
5 | CN(C)CCCN=C(N)N | > 100 µM | > 100 µM | > 100 µM | > 100 µM | > 100 µM | > 100 µM | > 100 µM | > 100 µM | > 100 µM | > 100 µM | – | – | – | – | – | – | – | – | – | –
6 | c1ccc2[nH]c(SSc3nc4ncncc4[nH]3)nc2c1 | 10.2 µM | > 100 µM | 34.2 µM | > 100 µM | > 100 µM | > 100 µM | > 100 µM | > 100 µM | > 91.1 µM | > 100 µM | 2.59 µM | 3.32 µM | 0.37 µM | 13 µM | 5.38 µM | 19.4 µM | 0.674 µM | 0.71 µM | 8.11 µM | 3.24 µM
7 | COC1/C=C\C=C(/C)C(=O)Nc2cc3nc4ccc(Br)cc4oc-3c(c2=O)CC(C)CC(OC)C(O)C(C)/C=C(\C)C1OC(N)=O (centres undefined) | 0.169 µM | 14.5 µM | 15.3 µM | 5.88 µM | 6.36 µM | 22.7 µM | 18 µM | – | 30.9 µM | 2.75 µM | 0.000903 µM | – | – | 0.00434 µM | – | – | 0.00403 µM | 0.000389 µM | – | 0.000996 µM
